Data as given in article PMC6017698 (Molecules : A Journal of Synthetic Chemistry and Natural …, 2018).
Read-outs that look alike come from different tables or passages of the source.

What was measured:
[1] = commercial drugs used for assay validation; cited from earlier work
[2] = for PAMPA-BBB prediction of BBB permeation: class from Pe value
Protocol: (§1) The brain permeability (Pe) of the target compounds was determined in vitro using the parallel artificial membrane permeation assay for blood-brain barrier penetration described by Di et al. [41], employing a lipid extract of porcine brain membrane in a mixture of PBS/EtOH 70:30.

[3] = target: T1, human recombinant AChE (Homo sapiens, UniProt P22303); assay: biochemical; assay type: biochemical; conditions: for IC50: human recombinant AChE; for selectivity for hAChE over hBChE inhibition: ratio of hBChE and hAChE IC50; for fold more potent hAChE inhibitor than pyridostigmine: relative to pyridostigmine
T1 construct: purchased Sigma, Milan, Italy
T1 sequence (P22303 32-614): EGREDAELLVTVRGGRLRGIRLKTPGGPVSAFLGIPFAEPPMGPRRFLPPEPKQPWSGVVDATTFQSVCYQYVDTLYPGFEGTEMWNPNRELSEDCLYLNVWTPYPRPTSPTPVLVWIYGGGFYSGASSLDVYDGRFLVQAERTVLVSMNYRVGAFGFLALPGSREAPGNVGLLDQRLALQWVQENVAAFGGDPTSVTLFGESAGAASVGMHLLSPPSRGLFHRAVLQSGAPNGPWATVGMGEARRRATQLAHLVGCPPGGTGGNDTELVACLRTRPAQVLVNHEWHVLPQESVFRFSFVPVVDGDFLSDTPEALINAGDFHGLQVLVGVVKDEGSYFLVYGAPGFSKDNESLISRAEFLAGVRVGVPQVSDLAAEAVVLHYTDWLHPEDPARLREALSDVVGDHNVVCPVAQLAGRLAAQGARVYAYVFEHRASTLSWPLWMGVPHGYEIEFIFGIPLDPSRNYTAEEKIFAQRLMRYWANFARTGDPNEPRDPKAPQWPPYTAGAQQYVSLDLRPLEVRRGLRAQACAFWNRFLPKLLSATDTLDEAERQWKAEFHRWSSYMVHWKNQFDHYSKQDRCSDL

[4] = target: human serum BChE (Homo sapiens, UniProt P06276); assay: biochemical
Chain of human serum BChE (P06276 29-602): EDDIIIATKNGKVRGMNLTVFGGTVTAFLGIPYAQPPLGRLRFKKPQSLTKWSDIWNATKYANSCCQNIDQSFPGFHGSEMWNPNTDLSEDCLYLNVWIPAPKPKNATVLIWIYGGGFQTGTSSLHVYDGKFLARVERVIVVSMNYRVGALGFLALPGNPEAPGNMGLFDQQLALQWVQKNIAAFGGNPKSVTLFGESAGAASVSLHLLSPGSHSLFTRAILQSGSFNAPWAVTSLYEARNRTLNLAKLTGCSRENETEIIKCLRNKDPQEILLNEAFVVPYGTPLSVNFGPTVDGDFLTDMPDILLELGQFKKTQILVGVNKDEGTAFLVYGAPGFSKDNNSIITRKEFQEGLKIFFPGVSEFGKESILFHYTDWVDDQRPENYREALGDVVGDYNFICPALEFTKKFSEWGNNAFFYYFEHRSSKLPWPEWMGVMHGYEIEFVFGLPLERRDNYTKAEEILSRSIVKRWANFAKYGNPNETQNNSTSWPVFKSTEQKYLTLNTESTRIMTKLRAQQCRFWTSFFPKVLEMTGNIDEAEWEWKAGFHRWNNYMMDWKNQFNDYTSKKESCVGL

[5] = in vitro; conditions: PAMPA
Protocol: as §1

[6] = mean ± SEM of at least three experiments, each in duplicate, read-out: hAChE IC50
[7] = mean ± SEM of at least three experiments, each in duplicate, read-out: hBChE IC50

Structure (SMILES)	PAMPA-BBB prediction of BBB permeation [2]	IC50 [3, 6] [nM]	IC50 [4, 7] [nM]	Papp ([5]; pig) [×10⁻⁶ cm/s]	further results
CN(C)CCCN1c2ccccc2Sc2ccccc21 [Promazine]	–	–	–	–	Reported Pe [1]: 8.8 10^−6 cm s^−1
COc1cc(CNC(=O)Cc2cn(CCNc3c4c(nc5ccccc35)CCCC4)nn2)ccc1O [Compound 15, N-[4-(hydroxy)-3-methoxybenzyl]-2-{1-[2-(1,2,3,4-tetrahydroacridin-9-ylamino)ethyl]-1H-1,2,3-triazol-4-yl}acetamide]	CNS− (low BBB permeation (CNS−) is expected for compounds with Pe < 2.07)	250 ± 10	50	0.03 ± 0.001	IC50 ([4]; values given in nM (table footnotes), read-out: IC50 hBChE): 54.8 nM
COc1cc(CNC(=O)Cc2cn(CCNc3c4c(nc5cc(Cl)ccc35)CCCC4)nn2)ccc1O [Compound 16, 2-{1-[2-(6-Chloro-1,2,3,4-tetrahydroacridin-9-ylamino)ethyl]-1H-1,2,3-triazol-4-yl}-N-[4-(hydroxy)-3-methoxybenzyl]acetamide]	CNS±	10	290 ± 10	2.97 ± 0.61	IC50 ([3]; values given in nM (table footnotes, text), read-out: IC50 hAChE): 7.18 nM; selectivity for hAChE over hBChE inhibition [3]: 40; fold more potent hAChE inhibitor than pyridostigmine [3]: 192 fold
C[n+]1c2c(c(N)c3ccccc31)CCCC2.[I-] [Compound 4, 9-Amino-1,2,3,4-tetrahydro-10-methylacridin-10-ium iodide]	CNS− (low BBB permeation (CNS−) is expected for compounds with Pe < 2.07)	12000 ± 1000	2850 ± 190	–	Papp [5]: 1.7 ± 1.5 ×10⁻⁶ cm/s
CCn1cc(C(=O)O)c(=O)c2cc(F)c(N3CCNCC3)cc21 [Norfloxazin, reference compound]	–	–	–	–	Experimental Pe ([2]; commercial drugs used for assay validation, mean ± SD of three independent experiments): 0.9 ± 0.1 10^−6 cm s^−1
Nc1c2c(nc3cc(Cl)ccc13)CCCC2 [6-chlorotacrine, reference compound]	CNS+ (High BBB permeation (CNS+) is expected for compounds with Pe > 5.19)	–	–	19.8 ± 0.4	–
C[n+]1c2c(c(N)c3ccc(Cl)cc31)CCCC2.[I-] [Compound 5, 9-Amino-6-chloro-1,2,3,4-tetrahydro-10-methylacridin-10-ium iodide]	CNS− (low BBB permeation (CNS−) is expected for compounds with Pe < 2.07)	2450 ± 280	22300 ± 1500	–	Papp [5]: 1.2 ± 0.8 ×10⁻⁶ cm/s
OCCc1cn(CCNc2c3c(nc4cc(Cl)ccc24)CCCC3)nn1 [Compound 10, 2-{1-[2-(6-Chloro-1,2,3,4-tetrahydroacridin-9-ylamino)ethyl]-1H-1,2,3-triazol-4-yl}ethanol]	CNS− (low BBB permeation (CNS−) is expected for compounds with Pe < 2.07)	200 ± 10	3250 ± 170	0.02 ± 0.001	selectivity for hAChE over hBChE inhibition [3]: 16; fold more potent hAChE inhibitor than pyridostigmine [3]: 7 fold
CC1=CC2Cc3c(c(N)c4ccc(Cl)cc4[n+]3C)C(C1)C2.[I-] (centres unmarked) [Compound 6, 12-Amino-3-chloro-6,7,10,11-tetrahydro-5,9-dimethyl-7,11-methanocycloocta[b]quinolin-5-ium iodide]	CNS+ (High BBB permeation (CNS+) is expected for compounds with Pe > 5.19)	–	–	–	PAMPA-BBB Pe ([2]; PBS/EtOH 70:30, mean of three independent experiments ± SD): 10.90 10^−6 cm/s; Papp [5]: 10.9 ± 1.5 ×10⁻⁶ cm/s
CN1C(C(=O)Nc2ccccn2)=C(O)c2ccccc2S1(=O)=O [Piroxicam]	–	–	–	–	Reported Pe [1]: 2.5 10^−6 cm s^−1
OCCc1cn(CCNc2c3c(nc4ccccc24)CCCC3)nn1 [Compound 9, 2-{1-[2-(1,2,3,4-Tetrahydroacridin-9-ylamino)ethyl]-1H-1,2,3-triazol-4-yl}ethanol]	CNS− (low BBB permeation (CNS−) is expected for compounds with Pe < 2.07)	1730 ± 120	170 ± 10	0.03 ± 0.001	–
